Source: patent US11390621B2, “Chiral indole compounds and their use” (ARIAGEN, INC., priority 2019, dated 2022)
“And” between values parts separate entries of the source, which are not always exact repeats. Equal values may be shown once. Read-outs that look alike come from different tables or passages of the source.

Key:
human hepatocytes = assay: Hepatocyte intrinsic clearance assay (metabolic stability), human hepatocytes; assay type: in vitro ADME; conditions: Human Hepatocytes; well stirred liver model, fu=1
Method in brief: (§1)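 Cryopreserved pooled hepatocytes (1×10^6 cells/mL final) incubated with 1 μM compound at 37 °C, 5% CO2; samples at 0–120 min quenched in acetonitrile, analysed by LC-MS in duplicate. t1/2 and CLint from ln(% remaining) vs time slope; CLH via well-stirred liver model (fu=1) and EH derived from it.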

[1] = as above; assay type: in vitro ADME; conditions: male, human, cryopreserved pooled hepatocytes, Human Hepatocytes, 1 μM test compound
Method in brief: as §1

[2] = Hepatocyte intrinsic clearance assay (metabolic stability), rat hepatocytes; assay type: in vitro ADME; conditions: rat, cryopreserved hepatocytes, Rat Hepatocytes, 1 μM test compound
Method in brief: as §1

rat hepatocytes = assay: as above; assay type: in vitro ADME; conditions: for EH (hepatic extraction ratio): Rat Hepatocytes, well stirred liver model, fu=1
Method in brief: as §1

CYP3A4 = biological target: T1, CYP3A4 (Homo sapiens, UniProt P08684); assay: CYP profiling: human liver microsomes with CYP3A4 inhibitor ketoconazole; assay type: in vitro ADME; design: % Compound Metabolized at 30 min, CYP3A4 Inhibitor: concentration or dose not given beside the values; conditions: HLMs; for % Inhibition Relative to Negative Control, 3A4: 30 min
T1 construct: from tissue; host or cells: human liver microsomes
Protocol: In order to investigate the contributions of CYP1A2 and CYP3A4 to the metabolism of the compounds of the present disclosure, human liver microsomes were incubated with the test compounds for 30 minutes in the presence of selective chemical inhibitors furafylline (1A2) and ketoconazole (3A4).

[3] = In vivo pharmacokinetic studies in rats; design: species or system SD rats; conditions: rats; for AUC(0-t): read-out: AUClast; for Tmax at 1 day: read-out: Tmax
Protocol: This example describes pharmacokinetic (PK) studies of ARI-164, ARI-165, ARI-186, ARI-224, and ARI-226 in mice and rats. In the present studies, the test compounds were given to groups of mice and/or rats (N=3 in each group), intravenously (IV) at 2 mg/kg or orally (PO) at 10, 30, or 40 mg/kg. ARI-186, ARI-224 and ARI-226 were given orally to rats QD for 5 days at 10 mg/kg to assess whether decreased susceptibility to CYP1A1/1A2 metabolism would lead to increased accumulation. IV doses were formulated in DMSO, while PO doses were formulated in a 50/50 mixture of PEG400 and Tween 80 (single dose mouse and rat studies for ARI-164, ARI-165, ARI-186, ARI-224, ARI-226) or PEG400/Kolliphor HS15/Oleic Acid 45/45/10 (ARI-164 repeat dose rat study). Blood samples were collected at pre-dose and over a period of 24 hours post-dose. Plasma concentrations of the test compounds were determined by HPLC.

[4] = SD, rat, plasma, po, 10 mg/kg, repeat 10 mg/kg PO QD, Day 5, Mean
[5] = SD, rat, plasma, po, 10 mg/kg, repeat 10 mg/kg PO QD, Day 5, individual animal
[6] = Sprague-Dawley (SD), rat, plasma, po, 10 mg/kg, repeat 10 mg/kg PO QD, Day 1, Mean of 3 animals
[7] = Sprague-Dawley, rat, plasma, po, 10 mg/kg, repeat 10 mg/kg PO QD, Day 1, individual animal
[8] = Sprague-Dawley, rat, plasma, po, 10 mg/kg, repeat 10 mg/kg PO QD, Day 5, Mean
[9] = repeat 10 mg/kg PO QD, Day 1, individual animal
[10] = repeat 10 mg/kg PO QD, Day 5, individual animal

T1 sequence (P08684 whole entry): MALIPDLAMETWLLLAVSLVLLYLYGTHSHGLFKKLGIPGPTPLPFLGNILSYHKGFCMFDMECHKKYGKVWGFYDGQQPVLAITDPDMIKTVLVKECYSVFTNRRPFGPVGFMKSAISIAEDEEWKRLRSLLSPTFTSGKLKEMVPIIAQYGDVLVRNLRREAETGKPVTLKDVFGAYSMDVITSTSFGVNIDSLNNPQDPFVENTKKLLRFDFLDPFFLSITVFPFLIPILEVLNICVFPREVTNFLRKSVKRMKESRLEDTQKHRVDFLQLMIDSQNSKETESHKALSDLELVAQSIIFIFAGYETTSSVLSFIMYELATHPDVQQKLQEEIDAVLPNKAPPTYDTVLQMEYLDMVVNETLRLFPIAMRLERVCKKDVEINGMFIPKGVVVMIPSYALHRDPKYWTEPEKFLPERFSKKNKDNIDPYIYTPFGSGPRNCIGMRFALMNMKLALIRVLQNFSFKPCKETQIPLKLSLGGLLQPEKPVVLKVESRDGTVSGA

With `N[C@H](c1csc(C(=O)c2c[nH]c3cc(F)ccc23)n1)C(F)(F)F` [ARI-223] the “EH (hepatic extraction ratio)” value (human hepatocytes) was 23.7%, the half-life at 1 μM [1] was 1 h and the hepatocyte CLint at 1 μM [1] was 11.6 µL/min/1e6 cells. The half-life at 1 μM [2] was 0.5 h, the hepatocyte CLint at 1 μM [2] was 25.6 µL/min/1e6 cells and the “EH (hepatic extraction ratio)” value (rat hepatocytes) was 63.1%. For the same molecule, the “% Compound Metabolized at 30 min, CYP3A4 Inhibitor” value (CYP3A4) was 42% and the “% Inhibition Relative to Negative Control, 3A4” value (CYP3A4) was 47%.

For `N[C@@H](c1csc(C(=O)c2c[nH]c3cc(F)ccc23)n1)C(F)(F)F` [ARI-224], the “EH (hepatic extraction ratio)” value (human hepatocytes) was 15.8%, the half-life at 1 μM [1] was 3 h and the hepatocyte CLint at 1 μM [1] was 3.85 µL/min/1e6 cells. The half-life at 1 μM [2] was 1.9 h, the hepatocyte CLint at 1 μM [2] was 6.12 µL/min/1e6 cells and the “EH (hepatic extraction ratio)” value (rat hepatocytes) was 29.0%. For the same molecule, the “CLint lower than that of ARI-164 (fold)” value (rat hepatocytes; rat hepatocytes) was “slightly lower”, the “% Compound Metabolized at 30 min, CYP3A4 Inhibitor” value (CYP3A4) was 8% and the “% Inhibition Relative to Negative Control, 3A4” value (CYP3A4) was 11%. The AUC(0-inf) [3, 4] was 8.24 ng·h/mL, the MRT inf at 5 days [3, 4] was 1.95 h and the half-life at 5 days [3, 4] was 1.28 h. It also gave an AUC(0-inf) [3, 5] of 8.24 ng·h/mL, an MRT inf at 5 days [3, 5] of 1.95 h and a half-life at 5 days [3, 5] of 1.28 h. The AUC(0-inf) [3, 6] was 2680 ng·h/mL, the Cmax at 1 day [3, 6] was 792 ng/mL and the MRT inf at 1 day [3, 6] was 2.79 h. The MRT last at 1 day [3, 6] was 2.48 h, the half-life at 1 day [3, 6] was 1.55 h and the AUC(0-t) [3, 6] was 2600 ng·h/mL. For the same molecule, the Tmax at 1 day [3, 6] was 1.33 h, the Cmax at 1 day [3, 7] was 699 ng/mL and the MRT inf at 1 day [3, 7] was 3.23 h. The MRT last at 1 day [3, 7] was 2.66 h, the half-life at 1 day [3, 7] was 2.05 h and the Tmax at 1 day [3, 7] was 1 h. For the same molecule, the Cmax at 5 day [3, 8] was 5.96 ng/mL, the MRT last at 5 day [3, 8] was 4.56 h and the Tmax at 5 day [3, 8] was 0.333 h. The AUC(0-t) [3, 8] was 11.4 ng·h/mL, the Tmax at 5 day ([3]; Sprague-Dawley, rat, plasma, po, 10 mg/kg, repeat 10 mg/kg PO QD, Day 5, individual animal) was 0.5 h and the “behaviour of exposure after 5 days of repeat dosing (in words)” value ([3]; 10 mg/kg PO QD for 5 days) was “increased elimination”. For the same molecule, the AUCinf [3, 9] was 2140 ng·h/mL and 4070 ng·h/mL and 1840 ng·h/mL, the AUClast [3, 9] was 1990 ng·h/mL and 4030 ng·h/mL and 1770 ng·h/mL and the Cmax [3, 9] was 1090 ng/mL and 587 ng/mL. For the same molecule, the MRTinf [3, 9] was 2.48 h and 2.66 h, the MRTlast [3, 9] was 2.42 h and 2.36 h and the T1/2 [3, 9] was 1.04 h and 1.57 h. For the same molecule, the Tmax [3, 9] was 2 h, the AUClast [3, 10] was 11.9 ng·h/mL and 14.9 ng·h/mL and 7.28 ng·h/mL and the Cmax [3, 10] was 5.53 ng/mL and 8.36 ng/mL and 3.98 ng/mL. For the same molecule, the MRTlast [3, 10] was 3.29 h and 8.95 h and 1.44 h and the Tmax [3, 10] was 0.25 h.

In the case of `NC1(c2csc(C(=O)c3c[nH]c4cc(F)ccc34)n2)CC1` [ARI-225, (4-(1-aminocyclopropyl)thiazol-2-yl)(6-fluoro-1H-indol-3-yl)methanone], the “EH (hepatic extraction ratio)” value (human hepatocytes) is reported as 17.8%, the half-life at 1 μM [1] is reported as 2.3 h and the hepatocyte CLint at 1 μM [1] is reported as 4.96 µL/min/1e6 cells. For the same molecule, the half-life at 1 μM [2] was 0.5 h, the hepatocyte CLint at 1 μM [2] was 23.2 µL/min/1e6 cells and the “EH (hepatic extraction ratio)” value (rat hepatocytes) was 60.8%. For the same molecule, the “% Compound Metabolized at 30 min, CYP3A4 Inhibitor” value (CYP3A4) was 29% and the “% Inhibition Relative to Negative Control, 3A4” value (CYP3A4) was 26%.

In the case of `N[C@H](c1csc(C(=O)c2c[nH]c3ccccc23)n1)C(F)(F)F` [ARI-228], the “EH (hepatic extraction ratio)” value (human hepatocytes) is reported as 27.6%, the half-life at 1 μM [1] is reported as 0.2 h and the hepatocyte CLint at 1 μM [1] is reported as 64.4 µL/min/1e6 cells. For the same molecule, the half-life at 1 μM [2] was 0.1 h, the hepatocyte CLint at 1 μM [2] was 112 µL/min/1e6 cells and the “EH (hepatic extraction ratio)” value (rat hepatocytes) was 88.2%. For the same molecule, the “% Compound Metabolized at 30 min, CYP3A4 Inhibitor” value (CYP3A4) was 75% and the “% Inhibition Relative to Negative Control, 3A4” value (CYP3A4) was 16%.

For `N[C@@H](c1csc(C(=O)c2c[nH]c3ccccc23)n1)C(F)(F)F` [ARI-229], the “EH (hepatic extraction ratio)” value (human hepatocytes) was 11.4%, the half-life at 1 μM [1] was 2.3 h and the hepatocyte CLint at 1 μM [1] was 5.03 µL/min/1e6 cells. The half-life at 1 μM [2] was 1 h, the hepatocyte CLint at 1 μM [2] was 11.7 µL/min/1e6 cells and the “EH (hepatic extraction ratio)” value (rat hepatocytes) was 43.9%. The “% Compound Metabolized at 30 min, CYP3A4 Inhibitor” value (CYP3A4) was 0% and the “% Inhibition Relative to Negative Control, 3A4” value (CYP3A4) was “None”.
